# Experimental data taken from PMC11525561, “Gliflozins, sucrose and flavonoids are allosteric activators of lecithin-cholesterol acyltransferase” (Scientific Reports, 2024).
# Like-named read-outs stand apart in the source and are kept apart here.
# Experiments:
# LCAT [1] = test system: LCAT; design: method as in PMID 30479275; settings: MUP assay; cited from earlier work
# [2] = cited from earlier work
# LCAT [3] = molecular target: T1, LCAT (Homo sapiens, UniProt P04180); test: DHE esterification acyltransferase assay with synthetic HDL (sHDL); type: biochemical; design: 6x histidine-tag (C); made in house; host or cells: 293T cells (ATCC CRL-3216); settings: for acyltransferase Emax / Emax: normalized against LCAT + DMSO; for acyltransferase efficiency: kcat divided by Km
# T1 sequence (P04180 25-440): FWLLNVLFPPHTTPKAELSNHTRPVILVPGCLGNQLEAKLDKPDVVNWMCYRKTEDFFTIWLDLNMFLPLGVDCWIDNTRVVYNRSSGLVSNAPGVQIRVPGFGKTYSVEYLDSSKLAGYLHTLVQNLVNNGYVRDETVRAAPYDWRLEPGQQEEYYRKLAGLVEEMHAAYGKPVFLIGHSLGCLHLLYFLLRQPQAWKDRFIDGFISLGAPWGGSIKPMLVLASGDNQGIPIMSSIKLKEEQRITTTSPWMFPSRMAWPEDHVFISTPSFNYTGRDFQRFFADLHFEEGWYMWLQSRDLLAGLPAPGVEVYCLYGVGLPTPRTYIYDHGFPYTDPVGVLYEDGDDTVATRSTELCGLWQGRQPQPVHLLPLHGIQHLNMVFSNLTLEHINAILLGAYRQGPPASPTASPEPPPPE
# Description: The acyltransferase activity of LCAT was measured by using the fluorescent sterol DHE as a substrate. DHE is integrated in the structure of discoidal synthetic HDL (sHDL) made of peptides (22A) and phospholipids (DMPC). As a consequence of the acyltransferase activity of LCAT, DHE is esterified and stored in the inner core of sHDL as DHE-ester. The esterification is responsible for a shift in the emission wavelength of DHE from 372 nm to 425 nm, allowing the exclusive detection of DHE-ester and monitoring of the reaction.
# DHE-sHDL was prepared via thermal cycling. In a glass vial, DHE and DMPC dissolved in chloroform were mixed with a molar ratio of 1:9. The organic solvent was dried with Rotavapor R-200 (BUCHI, Switzerland) at room temperature. The resulting dried thin lipid layer was hydrated with assay buffer (PBS 20 mM + EDTA 1 mM) and vortexed until complete dissolution. The solution was homogenized in a water bath sonicator at room temperature until transparency. 22A peptides dissolved in assay buffer were added to the vial (lipid to protein 2:1 w/w). The solution was incubated via three heating-cooling cycles (50 °C x 3 min; 4 °C x 3 min). […] The acyltransferase activity assay was performed in 384 well low volume black microplates with a final volume of 25 µL. PAM (0.1 mg/mL in DMSO) or DMSO were incubated with LCAT (5 µg/mL in assay buffer + 60 µM albumin (Merck)) 1:100 v/v at 37 °C gently shaken. After 30 min incubation, 10 µL of each reaction (LCAT + DMSO or LCAT + PAM) was added to the plate. To start the reaction, 10 µL of DHE-sHDL solution were added in the wells. The plate was incubated for 1 h at 37 °C gently shaken. Reactions were stopped by the addition of 5 µL of stop solution (assay buffer + 5 units/mL cholesterol oxidase COx + 7% Triton X-100). Plates went through a second round of incubation at 37 °C gently shaken for 1 h to extinguish the residual fluorescence of unesterified DHE. […] DHE-ester fluorescence was detected at an excitation wavelength of 325 nm and an emission wavelength of 425 nm using Varioskan LUX. Reactions without LCAT were used for background subtraction, while reactions without LCAT and stop solution without COx were used to generate a standard curve for DHE (λex 325 nm, λem 372 nm). Reactions were performed in triplicates with three independent experiments. Due to the light sensitivity of DHE, samples were protected from light during the entire preparation and assay. Data was processed via background subtraction, divided by the slope of the standard curve to obtain the amount of DHE-esters in every well and then divided further by the reaction time to determine the rate. The acyltransferase activity (DHE-ester formed) was plotted as a function of the DHE concentration. Data were fitted to the Michaelis-Menten kinetic equation by non-linear regression. Apparent Vmax and Km were calculated using OriginPro 2021b software, while acyltransferase efficiency of each PAM was calculated by dividing kcat by Km. […] The acyltransferase activities of our PAMs were compared to the reference compound A (Supplementary Fig. 2).
# PAMs were diluted in DMSO reaching a final concentration of 0.001, 0.01, 0.1, 1 and 10 µM in the wells. Reactions were conducted exactly as above, using the same LCAT concentration and the same volumes. The experiment was performed in triplicate with three independent experiments. Fluorescence signals were processed via background subtraction (DHE-sHDL + buffer + stop solution), divided by the slope of the standard curve to obtain the amount of DHE-esters in every well and then divided further by the reaction time to determine the rate. Data were normalized against no PAM control (LCAT + DMSO). The acyltransferase activity (DHE-ester formed) was plotted as a function of the PAM concentration.
# LCAT [4] = molecular target: T1, LCAT; test: MUP based phospholipase assay; type: biochemical; design: 6x histidine-tag (C); made in house; host or cells: 293T cells (ATCC CRL-3216); settings: for phospholipase efficiency: kcat divided by Km; for increase of phospholipase Vmax / increase of phospholipase efficiency: versus LCAT without compounds
# Description: The phospholipase activity of LCAT was evaluated by using MUP as a substrate. The reaction was monitored with the increased fluorescence signal due to the formation of the reaction product MU. The assay was performed at room temperature in reaction buffer (0.1 M sodium phosphate buffer, pH 7.4). 55 µL of LCAT in reaction buffer (0.01 mg/mL) were incubated at 37 °C gently shaken with 0.41 µL of PAM (2 mg/mL in DMSO) or DMSO. After 1 h incubation, 2 µL of each reaction (LCAT + DMSO, LCAT + PAM, reaction buffer + PAM) was added to a black 384 well microplate, low volume (Corning). A MUP stock solution 1 mg/mL in DMSO + 3% Triton X-100 was diluted in a reaction buffer to 0, 10, 40, 60 and 120 µM. 18 µL of each dilution was added to the plate to start the reaction. The MUP stock solution was diluted immediately before use due to the self-hydrolysis of MUP to MU in aqueous buffers. The phospholipase activity of LCAT was monitored by fluorescence signal using Varioskan LUX (Thermo Scientific) plate reader at an excitation wavelength of 340 nm and an emission wavelength of 460 nm every 10 min for 60 min. Background signal due to MUP self-hydrolysis was subtracted from each result. Reactions were performed in triplicates with three independent experiments. Reaction rates were obtained by dividing the data by the assay time. To calculate the amount of MU produced in each reaction, a standard curve was generated from a MU stock solution 100 mM in DMSO and diluted further in reaction buffer. The phospholipase activity (MU mM) was plotted as a function of the MUP concentration. Data were fitted to the Michaelis-Menten kinetic equation by non-linear regression. Apparent Vmax and Km were calculated with OriginPro 2021b (MA, USA) software (version 9.8.5.212), while phospholipase efficiency of each PAM was calculated by dividing kcat by Km. The absence of fluorescence interference coming from PAMs was checked at an excitation wavelength of 340 nm before starting the assay (Supplementary Fig. 3). The phospholipase activities of our PAMs were compared to a positive control compound A (Supplementary Fig. 2)[17].
# LCAT [5] = molecular target: T1, LCAT; design: method as in PMID 4214409; settings: blood of diabetes patients before and after insulin treatment; cited from earlier work
# [6] = design: method as in PMID 9827549, PMID 19110406; settings: cited from earlier work
# [7] = DHE 50 µM, PAM concentration varied
# [8] = DHE 50 µM, PAM concentration varied, mean ± SEM of triplicate, read-out: acyltransferase EC50
# [9] = PAM 3 µM, DHE concentration varied, mean ± SEM
# [10] = PAM 3 µM, versus LCAT without compounds
# [11] = MUP concentration varied, mean ± SEM
increase of LCAT acyltransferase activity (LCAT [3]; [7]),EC50 (LCAT [3]; [8]) [nM],acyltransferase Vmax (LCAT [3]; [9]) [µM h^− 1],improvement of acyltransferase efficiency (LCAT [3]; [10]),acyltransferase efficiency (LCAT [3]; PAM 3 µM) [µM⁻¹ h⁻¹],phospholipase Vmax (LCAT [4]; [11]) [µM h^− 1],phospholipase efficiency (LCAT [4]) [µM⁻¹ h⁻¹],Emax (LCAT [3]; DHE 50 µM) [%],SMILES,also measured
–,–,–,–,–,–,–,–,N#Cc1cnc(N2CCC(c3n[nH]c4c3C(O)(C(F)(F)F)CC(=O)N4)CC2)cc1C(F)(F)F (stereo not shown) [1b],phospholipase activity compared to LCAT (LCAT [1]): 230%
150%,80 ± 20,14.78 ± 0.34,roughly 100%,44.46 ± 2.43,15.70 ± 0.66,34.63 ± 0.97,–,Cc1ccc([C@@H]2O[C@H](CO)[C@@H](O)[C@H](O)[C@H]2O)cc1Cc1ccc(-c2ccc(F)cc2)s1 [canagliflozin],bound to proteins in plasma [2]: 99%; acyltransferase Emax (LCAT [3]; DHE 50 µM): 254.34±23.72%; Km (LCAT [3]; [9]): 8.37 ± 0.57 µM; increase of acyltransferase Vmax (LCAT [3]; [10]): 70%; Km (LCAT [4]; [11]): 22.7 ± 0.95 µM; increase of phospholipase Vmax (LCAT [4]): 130%; increase of phospholipase efficiency (LCAT [4]): 340%
roughly 100%,80 ± 40,12.13 ± 0.46,–,31.54 ± 2.93,11.68 ± 1.15,12.82 ± 2.80,196 ± 13.4,CCOc1ccc(Cc2cc([C@@H]3O[C@H](CO)[C@@H](O)[C@H](O)[C@H]3O)ccc2Cl)cc1 [dapagliflozin],bound to proteins in plasma [2]: 91%; increase of phospholipase Vmax (LCAT [4]): 70%
–,–,–,–,–,–,–,–,OC[C@H]1OC(O)[C@H](O)[C@@H](O)[C@@H]1O (stereo partly shown) [glucose],activation of LCAT (LCAT [5]): cannot activate LCAT
roughly 100%,100 ± 10,11.71 ± 0.43,roughly 100%,36.95 ± 2.13,10.91 ± 1.50,17.11 ± 4.72,191 ± 16.1,O=c1cc(-c2ccc(O)c(O)c2)oc2cc(O)cc(O)c12 [luteolin],–
no effect,–,6.58 ± 0.26,–,18.92 ± 2.45,7.95 ± 1.90,6.28 ± 1.06,–,COC(=O)Nc1nc2ccc(C(=O)c3ccccc3)cc2[nH]1 [mebendazole],"effect on acyltransferase activity at 21.6 µM DHE (LCAT [3]; 21.6 µM DHE, PAM 3 µM): inhibited activity slightly; acyltransferase EC50 (LCAT [3]; DHE 50 µM, PAM concentration varied, mean ± SEM of triplicate): no effect; acyltransferase Emax (LCAT [3]; DHE 50 µM): no effect"
roughly 100%,–,11.18 ± 0.80,roughly 100%,38.88 ± 9.05,8.79 ± 0.81,22.43 ± 4.38,176 ± 12.5,OC[C@H]1O[C@@](CO)(O[C@H]2O[C@H](CO)[C@@H](O)[C@H](O)[C@H]2O)[C@@H](O)[C@@H]1O [sucrose],oral bioavailability [6]: poor; EC50 (LCAT [3]): 120 ± 60 nM; increase of phospholipase efficiency (LCAT [4]): 180%
roughly 100%,120 ± 40,13.55 ± 0.67,–,22.69 ± 1.94,10.71 ± 0.49,19.60 ± 0.01,211 ± 21.4,O=C1c2c(O)cc(O)cc2OC(c2ccc(O)c(O)c2)C1O (stereo not shown) [taxifolin],–
